Test results from patent publication US11266626B2, “Reduction of ER-MAM-localized APP-C99 and methods of treating alzheimer's disease” (THE TRUSTEES OF COLUMBIA UNIVERSITY IN THE CITY OF NEW YORK, priority 2015, dated 2022).
Entries after “also recorded” stand apart in the source; their conditions may differ.

What was measured:
PS-DKO cells = assay: Analysis of ER-mitochondrial apposition (colocalization of ER and mitochondrial markers); format: cell-based, mouse; settings: 100 nM BI, 12-16 h
Procedure: Interactions between mitochondria and ER were performed as described (5).
Cells under were co-transfected with GFP-Sec61-β (Addgene plasmid #15108) and DsRed-Mito (Clontech, #632421) at a 1:1 ratio, using Lipofectamine 2000 (Invitrogen, #11668-027) in serum-free DMEM. Twelve hours post-transfection, cells were analyzed as described (8).
Cells under were co-transfected with GFP-Sec61-β (Addgene plasmid #15108) and DsRed2-Mito (Clontech, #632421) at a 1:1 ratio, using Lipofectamine 2000 (Invitrogen, #11668-027) in serum-free DMEM. Twelve hours post-transfection, cells were analyzed as described (Guardia-Laguarta et al., 2014).
Cells under were co-transfected with GFP-Sec61-β (Addgene plasmid #15108) and DsRed2-Mito (Clontech, #632421) at a 1:1 ratio, using Lipofectamine 2000 (Invitrogen, #11668-027) in serum-free DMEM. Twelve hours post-transfection, cells were analyzed as described (Guardia-Laguarta et al, 2014).

[1] = test system: acid (aSMase) and neutral (nSMase) sphingomyelinases; assay: Analysis of sphingomyelinase activity; format: cell-based, mouse; settings: PS-DKO MEFs; BI 100 nM; Aβ40:Aβ42 10:1, 6 ng/ml total
Procedure: (§1) One hundred μg of protein were assayed in 100 mM of the appropriate buffer (Tris/glycine for pH 7.0-9.0 and sodium acetate for pH 4.0-5.0), 1.55 mM Triton X-100, 0.025% BSA, 1 mM MgCl2, and 400 μM bovine brain sphingomyelin spiked with 22000 dpm of [3H]-bovine sphingomyelin ([…]). Reactions were carried out in borosilicate glass culture tubes at 37° C., overnight, followed by quenching with 1.2 ml of ice-cold 10% trichloroacetic acid, incubation at 4° C. for 30 min, and centrifugation at 2000 rpm at 4° C. for 20 min. One ml of supernatant was transferred to clean tubes, 1 ml of ether was added, the mixture vortexed, and centrifuged at 2000 rpm for 5 min. Eight hundred μl of the bottom phase was transferred to scintillation vials, 5 ml of Scintiverse BD (Fisher Scientific, Fair Lawn, N.J.) was added, and samples were counted. […]
(§2) Reactions were carried out in borosilicate glass culture tubes at 37° C., overnight, followed by quenching with 1.2 ml of ice-cold 10% trichloroacetic acid, incubation at 4° C. for 30 min, and centrifugation at 2000 rpm at 4° C. for 20 min. […] Eight hundred μl of the bottom phase was transferred to scintillation vials, 5 ml of Scintiverse BD (Fisher Scientific, Fair Lawn, N.J.) was added, and samples were counted. […]

APP C-terminal fragments = assay: Western blot of APP C-terminal fragments in total homogenates; format: cell-based, mouse; settings: PS-DKO MEFs total homogenates; BI
Procedure: Purification of ER, MAM, and mitochondria was performed and analyzed as described (4).
Purification of ER, MAM, and mitochondria was performed and analyzed as described Area-Gomez et al., 2009, the contents of which is hereby incorporated by reference in its entirety.
Purification of ER, MAM, and mitochondria was performed and analyzed as described (Area-Gomez et al, 2009). For C99 detection, samples were run in 4-12% Bis-Tris gels (Criterion XT Precast Midi Gels, BioRad) in XT MES buffer.

SH-SY5Y cells = assay: Staining of lipid droplets with LipidTox Green; format: cell-based, human; settings: DAPT 10 μM alone or with BI 100 nM
[2] = test system: acid (aSMase) and neutral (nSMase) sphingomyelinases; assay: Analysis of sphingomyelinase activity; format: cell-based, human; settings: SH-SY5Y cells; DAPT 10 μM
Procedure: as §1, §2

HeLa cells = assay: Staining of lipid droplets with LipidTox Green; format: cell-based, human; settings: DAPT 10 μM alone or with BI 100 nM
Procedure: Staining of lipid droplets was performed using HCS LipidTox™ Deep Green neutral lipid stain (Invitrogen H34475) according to the manufacturer's instructions. Lipid droplet staining was quantified using ImageJ. The different values represent the product of the intensity and the area covered by the fluorescent signal above background in every cell examined.

Compound	degree of ER-mitochondrial co-localization (apposition) (PS-DKO cells)	acid (aSMase) and neutral (nSMase) sphingomyelinase activity / sphingolipid turnover [1]	accumulation of APP C-terminal fragments (APP C-terminal fragments)	accumulation of lipid droplets (LDs) (SH-SY5Y cells)	SMase activity [2]	accumulation of lipid droplets (LDs) (HeLa cells)
C[C@@H](NC(=O)c1cc(C(=O)N[C@@H](Cc2ccccc2)[C@H](O)CNC2CC2)cc(N(C)S(C)(=O)=O)c1)c1ccccc1 [BI, β-secretase inhibitor IV]	reduced the degree of ER-mitochondrial co-localization significantly; also recorded: rescued the upregulation of ER-mitochondria apposition	reduced significantly; also recorded: attenuation of sphingolipid turnover; also recorded: attenuation of sphingolipid synthesis and hydrolysis by sphingomyelinases	eliminates the accumulation of APP C-terminal fragments	–	–	–
C[C@H](NC(=O)Cc1cc(F)cc(F)c1)C(=O)N[C@H](C(=O)OC(C)(C)C)c1ccccc1 [DAPT]	–	–	–	LDs also accumulated; also recorded: Lipid droplets also accumulated	significantly increased SMase activities; also recorded: increase in SMase activity	LDs also accumulated; also recorded: Lipid droplets also accumulated
